From ChEMBL document CHEMBL3046160, “Insecticidal Activities of the Enantiomers of Asymmetric 1-[1-(6-Chloro-3-pyridyl)ethyl]-2-nitroiminoimidazolidine against American Cockroach, Cucurbit Leaf Beetle, Green Rice Leafhopper and Green Peach Aphid Following Injection, Dipping and Spraying” (2004)

Legend:
[1] = test system: Myzus persicae; experiment: Insecticidal activity against Myzus persicae (green peach aphid) in two-leaf stage eggplant assessed as mortality at 8 ppm after 7 days; assay type: functional; settings: 168 h
[2] = test system: Musca domestica; experiment: Insecticidal activity against Musca domestica (house fly) compound administered through injection; assay type: functional
[3] = test system: Myzus persicae; experiment: Insecticidal activity against Myzus persicae (green peach aphid) in two-leaf stage eggplant assessed as mortality at 1.6 ppm after 7 days; assay type: functional; settings: 168 h
[4] = test system: Nephotettix cincticeps; experiment: Insecticidal activity against Nephotettix cincticeps (green rice leafhopper) in compound-sprayed rice plant assessed as mortality at 1.6 ppm after 2 to 7 days; assay type: functional
[5] = test system: Periplaneta americana; experiment: Insecticidal activity against Periplaneta americana (American cockroach) compound administered through injection into abdomen in presence of piperonyl butoxide and NIA 16388; assay type: functional
[6] = test system: Aulacophora; experiment: Insecticidal activity against second-instar larvae of Aulacophora femoralis (cucurbit leaf beetle) in compound-treated cucumber leaf assessed as mortality at 1.6 ppm after 2 to 7 days; assay type: functional
[7] = test system: Periplaneta americana; experiment: Neuroblocking potency in Periplaneta americana (American cockroach) admoninal central nerve cod; assay type: functional
[8] = test system: Nephotettix cincticeps; experiment: Insecticidal activity against Nephotettix cincticeps (green rice leafhopper) in compound-sprayed rice plant assessed as mortality at 8 ppm after 2 to 7 days; assay type: functional
[9] = biological target: T1, Nicotinic acetylcholine receptor alpha 5 subunit (Musca domestica) (UniProt A9XFY4); experiment: Displacement of [3H]IMI from Musca domestica (house fly) head membrane nicotinic acetylcholine receptor
T1 sequence (whole entry): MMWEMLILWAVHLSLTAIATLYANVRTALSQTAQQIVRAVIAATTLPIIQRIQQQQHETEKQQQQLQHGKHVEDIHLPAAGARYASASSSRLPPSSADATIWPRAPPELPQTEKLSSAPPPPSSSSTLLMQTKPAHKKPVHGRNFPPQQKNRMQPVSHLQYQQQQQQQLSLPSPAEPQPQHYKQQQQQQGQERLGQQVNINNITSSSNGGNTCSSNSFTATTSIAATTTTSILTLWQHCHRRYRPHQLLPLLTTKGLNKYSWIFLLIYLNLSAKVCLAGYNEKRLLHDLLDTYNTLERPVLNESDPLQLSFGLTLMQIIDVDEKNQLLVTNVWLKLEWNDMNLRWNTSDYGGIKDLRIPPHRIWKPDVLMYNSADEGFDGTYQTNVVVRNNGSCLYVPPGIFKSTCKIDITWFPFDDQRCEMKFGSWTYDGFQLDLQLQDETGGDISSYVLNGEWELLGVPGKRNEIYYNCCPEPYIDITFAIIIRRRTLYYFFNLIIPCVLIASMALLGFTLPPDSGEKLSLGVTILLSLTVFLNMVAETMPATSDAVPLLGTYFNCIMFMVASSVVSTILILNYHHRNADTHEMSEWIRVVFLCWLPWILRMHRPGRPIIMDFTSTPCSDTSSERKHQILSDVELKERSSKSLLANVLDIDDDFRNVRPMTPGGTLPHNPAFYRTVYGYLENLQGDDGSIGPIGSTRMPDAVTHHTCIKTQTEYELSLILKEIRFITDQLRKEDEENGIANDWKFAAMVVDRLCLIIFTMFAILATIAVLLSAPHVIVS

[10] = test system: Musca domestica; experiment: Insecticidal activity against Musca domestica (house fly) compound administered through injection in presence of piperonyl butoxide and NIA 16388; assay type: functional
[11] = test system: Periplaneta americana; experiment: Insecticidal activity against Periplaneta americana (American cockroach) compound administered through injection into abdomen; assay type: functional
[12] = test system: Aulacophora; experiment: Insecticidal activity against second-instar larvae of Aulacophora femoralis (cucurbit leaf beetle) in compound-treated cucumber leaf assessed as mortality at 8 ppm after 2 to 7 days; assay type: functional

For `C[C@H](c1ccc(Cl)nc1)N1CCN/C1=N\[N+](=O)[O-]` [(R)-METHYL-IMIDACLOPRID], the mortality at 8 ppm [1] was 90%, the MLD [2] was 55 pmol and the mortality at 1.6 ppm [3] was 60%. The mortality at 1.6 ppm [4] was 100%, the MLD [5] was 0.83 nmol and the mortality at 1.6 ppm [6] was 50%. For the same compound, the Activity [7] was 73 µM, the mortality at 8 ppm [8] was 100% and the Activity [9] was 0.95 µM. The MLD [10] was 2.3 pmol, the MLD [11] was 42 nmol and the mortality at 8 ppm [12] was 90%.

With `C[C@@H](c1ccc(Cl)nc1)N1CCN/C1=N\[N+](=O)[O-]` [(S)-METHYL-IMIDACLOPRID] the mortality at 8 ppm [1] was 60%, the MLD [2] was 45 pmol and the mortality at 1.6 ppm [3] was 40%. It also gave a mortality at 1.6 ppm [4] of 90%, an MLD [5] of 0.93 nmol and a mortality at 1.6 ppm [6] of 100%. The Activity [7] was 5.9 µM, the mortality at 8 ppm [8] was 100% and the Activity [9] was 0.19 µM. The MLD [10] was 1.1 pmol, the MLD [11] was 30 nmol and the mortality at 8 ppm [12] was 100%.

Compound `O=[N+]([O-])/N=C1\NCCN1Cc1ccc(Cl)nc1` [IMIDACLOPRID] has a mortality at 8 ppm [1] of 100%, an MLD [2] of 2.2 pmol and a mortality at 1.6 ppm [3] of 100%. The mortality at 1.6 ppm [4] was 100%, the MLD [5] was 0.07 nmol and the mortality at 1.6 ppm [6] was 100%. It also gave an Activity [7] of 2.3 µM, a mortality at 8 ppm [8] of 100% and an Activity [9] of 0.02 µM. For the same compound, the MLD [10] was 0.26 pmol, the MLD [11] was 1.1 nmol and the mortality at 8 ppm [12] was 100%.

With `CN1CCC[C@H]1c1cccnc1` [NICOTINE] the MLD [5] was 310 nmol, the Activity [9] was 11.9 µM and the MLD [11] was 490 nmol.

`CN1CCC[C@@H]1c1cccnc1` [R-NICOTINE] was tested, and the MLD [5] was 160 nmol, the Activity [9] was 422 µM and the MLD [11] was 320 nmol.
